Here are results for one molecule from PMC10110893, “[…]-derived synthetic cannabinoids inhibit T-type calcium channels with divergent effects on seizures in rodent models of epilepsy” (Frontiers in Physiology, 2023).

Data set [1] is described as follows: Aqueous solubility (dosing observation). The data set is classed as physicochemical. The note with it: prevented assessment at doses above 100 mg/kg. The procedure:
SB2193 and SB2193F were prepared in ethanol-Tween 80%–0.9% saline (1:1:18 ratio) and valproic acid in 0.9% saline. All doses were completely soluble in this vehicle except for the 100 mg/kg SB2193 dose, which was a suspension.

The nature of data set [2]: Brain concentration after sub-chronic administration in chow. The data set is classed as in vivo, mouse. The settings on record: 5,000 mg/kg chow ad libitum P18–23, male and female mice, n = 10. The procedure:
Plasma samples (50 μL) were spiked with an internal standard (diazepam) and vortexed with 1 M NaOH (50 μL) and methyl tert-butyl ether (1 mL) to achieve protein precipitation. The organic layer was isolated by centrifugation (4,000 g for 3 min) before being frozen for 60 min at −80°C, evaporated to dryness using N2, and reconstituted in 30% acetonitrile and 0.1% formic acid in water for analysis. Brain hemispheres were homogenised in a 10x w/v 1:1 methanol-water solution using a Biospec Tissue-Tearor (Bartlesville, United States) and centrifuged at 20,000 g for 30 min at 4°C. Supernatant (100 μL) was collected and prepared following the same method as plasma.
SB2193 and SB2193F concentrations in brain and plasma samples were assessed by high performance liquid chromatography-tandem mass spectrometry (HPLC-MS/MS) using a Shimadzu Nexera liquid chromatograph coupled with a Shimadzu 8,030 triple quadrupole mass spectrometer (Kyoto, Japan). […]
Quantification was achieved by comparing experimental samples to plasma and brain standards prepared with known concentrations of SB2193 or SB2193F. Samples were quantified against a 7-point standard curve (R ^2 > 0.98 for both analytes). […]

The subject of data set [3] is Genetic Absence Epilepsy Rat from Strasbourg (GAERS). Put plainly: Spike-and-wave discharges (EEG) in GAERS. The data set is classed as in vivo. The procedure:
GAERS experiments were conducted in accordance with the standards of the Canadian Council on Animal Care and approved by the University of Saskatchewan Animal Research Ethics Board (protocol 20130118). GAERS were initially sourced from the University of Melbourne to establish a Canadian GAERS colony in 2010 ([Powell et al., 2014]) and weanlings were provided by the Snutch Laboratory at the University of British Columbia to the University of Saskatchewan in 2013 (snutchlab.msl.ubc.ca) ([Marks et al., 2016]; [Marks et al., 2019]). GAERS were maintained on a 12 h light/dark cycle with lights on at 0700 and access to food and water ad libitum except during EEG recordings.
GAERS display reliable spike and wave discharges (SWD) characteristic of childhood absence epilepsy (CAE) ([Tringham et al., 2012]; [Marks et al., 2019]; [Roebuck et al., 2021]; [McElroy et al., 2022]; [Roebuck et al., 2022]). Experiments were conducted in male (n = 11; two removed due to poor recording integrity) and female (n = 5) GAERS. Group sizes were determined based on previous experiments and availability of age, sex, and litter matched animals ([Marks et al., 2019]; [McElroy et al., 2022]; [Roebuck et al., 2022]). Animals were well handled and habituated to the recording protocol prior to testing. Baseline recordings were performed prior to sessions with drug treatment and SB2193 (10, 30, 100 mg/kg) or vehicle (5 mL/kg) was administered (i.p.) ∼15–20 min prior to recordings using a within-subjects design (5–7 days washout periods between treatments). SB2193 was freshly prepared in ethanol-Kolliphor (Sigma Aldrich)-saline (1:1:18 ratio).
Construction and implantation of electrodes proceeded according to established protocols ([Farrell et al., 2018]; [Marks et al., 2019]; [McElroy et al., 2022]; [Roebuck et al., 2022]). Surgeries were performed under isoflurane anaesthesia with buprenorphine, anafen, and bupivicaine (topical) used as analgesics. Bipolar electrodes were chronically implanted bilaterally in somatosensory cortex (A/P 0.6 mm, M/L 5.5 mm, D/V −3.0 mm, relative to bregma) ([Polack et al., 2007]). Implants were secured with 3.2 mm stainless steel screws (one served as a ground) and dental cement. Animals were given a 1-week recovery period before habituation and testing.
Following recovery from surgery, animals were handled for 3–4 days and habituated to the EEG tether and hook-up process at least once before baseline recordings. Local field potentials (LFP) were acquired by tethered EEG (Grass Technologies), amplified 5,000x, and digitized at 100 Hz ([Farrell et al., 2018]; [Marks et al., 2019]; [McElroy et al., 2022]; [Roebuck et al., 2022]). Recordings (4 h) were conducted in two clear Plexiglas boxes (32 cm × 32 cm) and treatments were randomized such that each animal received each treatment. During recording sessions, animals were prevented from sleeping with gentle taps on the chamber door as necessary. Animals were perfused to confirm electrode placement following testing.
SWDs were analysed using a custom MATLAB (MathWorks) script developed by Dr. Stuart Cain and Jeff LeDue at the University of British Columbia. SWDs were assessed between 7 and 12 Hz and defined as bursts > 3x baseline amplitude >0.5 s as previously described ([Powell et al., 2014]; [Farrell et al., 2018]; [Marks et al., 2019]; [Roebuck et al., 2021]; [McElroy et al., 2022]; [Roebuck et al., 2022]). SWDs were analysed semi-automatically using Matlab and manually confirmed by a researcher blinded to treatment. A second researcher re-analysed a subset of files and interrater reliability was confirmed. Treatment data are normalized to initial non-treatment baseline data (e.g., % change) to account for SWD variability between subjects. Raw SWD data are also reported for comparison.
Time-binned data were analysed using a two-way analysis of variance (ANOVA) with factors of treatment (vehicle, 10, 30, 100 mg/kg SB2193) and time (1, 2, 3, 4 h post-treatment). […]

Setting [4] is: 100 mg/kg i.p., 4 h EEG recording.
The mark [5] stands for this setting: 30 and 100 mg/kg i.p., 4 h EEG recording.

For the molecule `CCCCCn1cc(C(=O)N2CCN(C(=O)OC(C)(C)C)CC2)c2ccccc21` [SB2193], the aqueous solubility entry in data set [1] is “poor aqueous solubility”. This molecule registered a brain concentration in data set [2] of 1.7 ± 0.6 µM. Also, the “SWD incidence, raw count data, compared to vehicle” value in data set [3] (30 mg/kg i.p., 4 h EEG recording) is “significantly increased”. In addition, in data set [3] (setting [4]), the “SWD average duration, raw data, compared to vehicle” value was “significantly increased” and the “average SWD duration, normalized to baseline, compared to vehicle” value is “increased”. For the same molecule, in data set [3] (10, 30, 100 mg/kg i.p., 4 h EEG recording), the SWD frequency result was “No changes”. Further, the “effects on SWDs in the first hour following administration” value in data set [3] (10, 30, 100 mg/kg i.p., first hour) is reported as “No significant effects”. Besides, in data set [3] (setting [5]), the “SWD (total) duration, normalized to baseline, compared to vehicle” value is reported as “significantly increased”; the “SWD incidence, normalized to baseline, compared to vehicle” value is “significantly increased”; the “SWD total duration, raw data, compared to vehicle” value is reported as “significantly increased”.
